According to the CheMixHub ionic liquid set:

Assay: xn = mol fraction of the nth substance listed
Details: 100 kPa

CC[n+]1ccn(C)c1.O=S(=O)([O-])O + CC[C@H](C)[C@H](N)C(=O)O + O
viscosity [mPa·s]
Details | 303.15 K | 308.15 K | 313.15 K
x2 = 0, x1 = 0.0005421 | – | 0.75 | 0.678
x2 = 0, x1 = 0.0009056 | – | 0.759 | 0.684
x2 = 0, x1 = 0.001263 | – | 0.78 | 0.697
x2 = 0.0004219, x1 = 0.0009052 | – | 0.769 | 0.693
x2 = 0.0004673, x1 = 0.001263 | – | 0.79 | 0.708
x2 = 0.0005036, x1 = 0.0005418 | – | 0.762 | 0.69
x2 = 0.0007653, x1 = 0.0009049 | – | 0.777 | 0.701
x2 = 0.0008312, x1 = 0.0005417 | – | 0.77 | 0.697
x2 = 0.000832, x1 = 0.001262 | – | 0.799 | 0.716
x2 = 0.0009488, x1 = 0.0005416 | – | 0.773 | 0.7
x2 = 0.00107, x1 = 0.0009046 | – | 0.785 | 0.708
x2 = 0.001216, x1 = 0.001262 | 0.897 | 0.808 | 0.724
x2 = 0.001364, x1 = 0.001262 | 0.901 | 0.812 | 0.728
x2 = 0.001515, x1 = 0.0009042 | 0.881 | 0.795 | 0.717
x2 = 0.001572, x1 = 0.0005413 | 0.864 | 0.789 | 0.714
x2 = 0.001693, x1 = 0.0005412 | 0.867 | 0.792 | 0.717
x2 = 0.001746, x1 = 0.001261 | 0.91 | 0.821 | 0.736
x2 = 0.001796, x1 = 0.000904 | 0.888 | 0.802 | 0.724
x2 = 0.002205, x1 = 0.0009036 | 0.898 | 0.812 | 0.733
x2 = 0.002228, x1 = 0.0005409 | 0.881 | 0.805 | 0.729
x2 = 0.002256, x1 = 0.001261 | 0.923 | 0.833 | 0.747
x2 = 0.002728, x1 = 0.00126 | 0.935 | 0.844 | 0.758
